Test results as given in patent US12329822B2, “Antimicrobial tailored chitosan” (UNIVERSITÉ DE GENÈVE, priority 2019, dated 2025).

Columns and labels:
P. aeruginosa = settings: native peptide; cited from earlier work
S. aureus = settings: native peptide; cited from earlier work
M. tuberculosis = settings: native peptide; cited from earlier work
E. coli = settings: native peptide; cited from earlier work
C. albicans = settings: native peptide; cited from earlier work
P. aeruginosa (PA01) = experiment: Transmission electron microscopy (TEM) on P. aeruginosa; format: cell-based, Pseudomonas aeruginosa
Experimental: Method 1 for Example 2: Transmission Electron Microscopy (TEM) with A3-S—C1 on P. aeruginosa
Pseudomonas aeruginosa PAO1 in the exponential phase were washed with phosphate buffered saline (PBS) and treated with 5 μg/mL Polymyxin B, 40 μg/mL G3KL and 40 or 64 μg/mL […] in M63 minimal medium. Each time, 1 ml of the bacteria were centrifuged after 15, 30 and 60 min at 12′000 rpm for 3 min and fixed overnight with 2.5% glutaraldehyde (Agar Scientific, Stansted, Essex, UK) in 0.15 M HEPES (Fluka, Buchs, Switzerland) with an osmolarity of 670 mOsm and adjusted to a pH of 7.35. The next day, PAO1 were washed with 0.15 M HEPES three times for 5 min, post fixed with 1% OsO4 (SPI Supplies, West Chester, USA) in 0.1 M Na-cacodylate-buffer (Merck, Darmstadt, Germany) at 4° C. for 1 h. Thereafter, bacteria were washed in 0.1 M Na-cacodylate-buffer three times for 5 min and dehydrated in 70, 80, and 96% ethanol (Alcosuisse, Switzerland) for 15 min each at room temperature. Subsequently, they were immersed in 100% ethanol (Merck, Darmstadt, Germany) three times for 10 min, in acetone (Merck, Darmstadt, Germany) two times for 10 min, and finally in acetone-Epon (1:1) overnight at room temperature. The next day, bacteria were embedded in Epon (Fluka, Buchs, Switzerland) and hardened at 60° C. for 5 days. […]

Substance | MIC (P. aeruginosa) [µg/mL] | MIC (S. aureus) [µg/mL] | MIC (M. tuberculosis) [µg/mL] | MIC (E. coli) [µg/mL] | MIC (C. albicans) [µg/mL] | Effect on bacterial membranes (TEM imaging) (P. aeruginosa (PA01)) | Effect on P. aeruginosa (PA01) (P. aeruginosa (PA01); TEM, concentration 5 μg/mL)
IDR-1018: linear AMP VRLIVAVRIWRR (SEQ ID NO: 9) (AMP) | 19 | 5 | 16 | – | – | – | –
OP-145: linear AMP IGKEFKRIVERIKRFLRELVRPLR (SEQ ID NO: 12) (AMP) | 9.2 to 18.3 | – | – | 6.1 to 9.2 | 18.3 | – | –
Polymyxin B | – | – | – | – | – | attacks only the outer membrane of the bacteria | Attack on the outer membrane
